According to patent publication US9012398B2, “Acylated exendin-4 compounds” (priority 2006, dated 2015):
Read-outs that look alike come from different tables or passages of the source. Starred links: 1 amine or outer side, 2 acyl side, 3 side chain; linkers in the order of their positions; H or OH if unused. Residues, ends and D or L forms follow the SMILES beside them. Groups on a side chain read outwards from the residue. *: point of attachment. γGlu = O=C(O)[C@H](CCC(=O)[*:2])N[*:1]; Stearoyl = CCCCCCCCCCCCCCCCCC(=O)*; Palmitoyl = CCCCCCCCCCCCCCCC(=O)*; AEEA = NCCOCCOCC(=O)O

Experiments:
[1] = Chemical stability of solubilised peptide at 40° C., impurities monitored by RP-HPLC/UPLC; type: physicochemical; conditions: for Formation rate of peptide related impurities at 40° C.: 2.5 weeks, 100 nmol peptide in 1 ml phosphate buffered saline, pH 7.4
Description: The chemical stability of solubilised acylated exendin-4 compounds were monitored by RP-HPLC following incubation at […]
The formation of exendin analogue related impurities relative to control samples stored in the freezer were monitored with a Waters UPLC system. Samples were applied to Acquity UPLC BEH C18 (1.7 μm) 2.1×50 mm column and eluted at a flow rate of 0.9 ml/min with linear stepwise gradients of acetonitrile in 0.1% trifluoroacetic acid (from 5 to 100% acetonitrile for 10 min, and from 100 to 5% acetonitrile for 1 min). The column was heated to 30 C and detection was performed at 214 nm.

human GLP-1 receptor = target: T1, human GLP-1 receptor (Homo sapiens, UniProt P43220); test: Functional receptor assay: cAMP formation in plasma membranes of BHK cells expressing the cloned human GLP-1 receptor (GLP1cAMPma); type: biochemical
T1 construct: expressed in transfected cells; host or cells: BHK cells, clone BHK-467-12A; plasma membrane preparation
T1 sequence (P43220 24-463): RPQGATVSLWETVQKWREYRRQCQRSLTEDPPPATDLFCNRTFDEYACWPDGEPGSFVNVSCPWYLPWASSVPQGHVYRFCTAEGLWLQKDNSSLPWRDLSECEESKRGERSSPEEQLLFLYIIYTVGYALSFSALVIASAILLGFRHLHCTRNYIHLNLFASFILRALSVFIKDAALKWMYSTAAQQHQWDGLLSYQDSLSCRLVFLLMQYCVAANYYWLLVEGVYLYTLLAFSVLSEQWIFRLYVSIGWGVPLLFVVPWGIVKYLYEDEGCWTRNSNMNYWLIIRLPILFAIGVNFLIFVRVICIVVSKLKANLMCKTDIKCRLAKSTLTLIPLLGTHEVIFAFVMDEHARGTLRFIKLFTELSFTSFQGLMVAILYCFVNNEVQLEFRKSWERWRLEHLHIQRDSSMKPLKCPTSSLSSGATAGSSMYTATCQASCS
Description: The term “insulinotropic agent” as used herein means a compound which is an agonist of the human GLP-1 receptor, i.e. a compound which stimulates the formation of cAMP in a suitable medium containing the human GLP-1 receptor (one such medium disclosed below). The potency of an insulinotropic agent is determined by calculating the EC50 value from the dose-response curve as described below.
The cells were washed twice in phosphate buffered saline and harvested with Versene. Plasma membranes were prepared from the cells by homogenisation with an Ultraturrax in buffer 1 (20 mM HEPES-Na, 10 mM EDTA, pH 7.4). The homogenate was centrifuged at 48,000×g for 15 min at 4° C. The pellet was suspended by homogenization in buffer 2 (20 mM HEPES-Na, 0.1 mM EDTA, pH 7.4), then centrifuged at 48,000×g for 15 min at 4° C. The washing procedure was repeated one more time. The final pellet was suspended in buffer 2 and used immediately for assays or stored at −80° C.
The functional receptor assay was carried out by measuring cyclic AMP (cAMP) as a response to stimulation by the insulinotropic agent. cAMP formed was quantified by the AlphaScreen™ cAMP Kit (Perkin Elmer Life Sciences). Incubations were carried out in half-area 96-well microtiter plates in a total volume of 50 μL buffer 3 (50 mM Tris-HCl, 5 mM HEPES, 10 mM MgCl2, pH 7.4) and with the following additions: 1 mM ATP, 1 μM GTP, 0.5 mM 3-isobutyl-1-methylxanthine (IBMX), 0.01% Tween-20, 0.1% BSA, 6 μg membrane preparation, 15 μg/mL acceptor beads, 20 μg/mL donor beads preincubated with 6 nM biotinyl-cAMP. […] GTP was freshly prepared for each experiment. The plate was incubated in the dark with slow agitation for three hours at room temperature followed by counting in the Fusion™ instrument (Perkin Elmer Life Sciences). Concentration-response curves were plotted for the individual compounds and EC50 values estimated using a four-parameter logistic model with Prism v. 4.0 (GraphPad, Carlsbad, Calif.).

[2] = cAMP, membranes with human GLP-1 receptor, mean value, read-out: GLP1cAMPma (3693) [EC50 (nM)] Mean Value

Molecule	Formation rate of peptide related impurities at 40° C. [1]	EC50 (human GLP-1 receptor; [2])	EC50 (human GLP-1 receptor)	formation rate of peptide related impurities ([1]; 100 nmol/ml in 50 mM phosphate buffer with 0.05% Tween 80, pH 8.0)
CCCCCCCCCCCCCCCCCC(=O)NCCOCCOCC(=O)NCCOCCOCC(=O)NCCOCCOCC(=O)NCCCC[C@H](NC(=O)[C@@H](NC(=O)[C@H](C)NC(=O)[C@H](CCC(=O)O)NC(=O)[C@H](CCC(=O)O)NC(=O)[C@H](CCC(=O)O)NC(=O)[C@H](CC(C)C)NC(=O)[C@H](CCC(N)=O)NC(=O)[C@H](CCCNC(=N)N)NC(=O)[C@H](CO)NC(=O)[C@H](CC(C)C)NC(=O)[C@H](CC(=O)O)NC(=O)[C@H](CO)NC(=O)[C@@H](NC(=O)[C@H](Cc1ccccc1)NC(=O)[C@@H](NC(=O)CNC(=O)[C@H](CCC(=O)O)NC(=O)CNC(=O)[C@@H](N)Cc1c[nH]cn1)[C@@H](C)O)[C@@H](C)O)C(C)C)C(=O)N[C@@H](CC(C)C)C(=O)N[C@@H](Cc1ccccc1)C(=O)N[C@H](C(=O)N[C@@H](CCC(=O)O)C(=O)N[C@@H](Cc1c[nH]c2ccccc12)C(=O)N[C@@H](CC(C)C)C(=O)N[C@@H](CCCNC(=N)N)C(=O)N[C@@H](CCC(N)=O)C(=O)NCC(=O)NCC(=O)N1CCC[C@H]1C(=O)N[C@@H](CO)C(=O)N[C@@H](CO)C(=O)NCC(=O)N[C@@H](C)C(=O)N1CCC[C@H]1C(=O)N1CCC[C@H]1C(=O)N1CCC[C@H]1C(=O)N[C@@H](CO)C(N)=O)[C@@H](C)CC [Example 14, N-ε^20-(2-(2-(2-(2-(2-(2-(2-(2-(2-(Octadecanoylamino)ethoxy)ethoxy)acetylamino)ethoxy)ethoxy)acetyl-amino)ethoxy)ethoxy)acetyl))[Arg^12,27,Gln^28,Leu^14,Lys^20 Exendin-4(1-39)amide] (H-HGEGTFTSDLSRQLEEEAVK([AEEA-AEEA-AEEA-Stearoyl])LFIEWLRQGGPSSGAPPPS-NH2; N-terminus assumed)	1.5 %/week	0.017 nM	–	–
CCCCCCCCCCCCCCCC(=O)N[C@@H](CCC(=O)NCCOCCOCC(=O)NCCOCCOCC(=O)NCCCC[C@H](NC(=O)[C@H](CCC(N)=O)NC(=O)[C@H](CCCNC(=N)N)NC(=O)[C@H](CO)NC(=O)[C@H](CC(C)C)NC(=O)[C@H](CC(=O)O)NC(=O)[C@H](CO)NC(=O)[C@@H](NC(=O)[C@H](Cc1ccccc1)NC(=O)[C@@H](NC(=O)CNC(=O)[C@H](CCC(=O)O)NC(=O)CNC(=O)[C@@H](N)Cc1c[nH]cn1)[C@@H](C)O)[C@@H](C)O)C(=O)N[C@@H](CCC(=O)O)C(=O)N[C@@H](CCC(=O)O)C(=O)N[C@@H](CCC(=O)O)C(=O)N[C@@H](C)C(=O)N[C@H](C(=O)N[C@@H](CCCNC(=N)N)C(=O)N[C@@H](CC(C)C)C(=O)N[C@@H](Cc1ccccc1)C(=O)N[C@H](C(=O)N[C@@H](CCC(=O)O)C(=O)N[C@@H](Cc1c[nH]c2ccccc12)C(=O)N[C@@H](CC(C)C)C(=O)N[C@H](C(=O)N[C@@H](CCCNC(=N)N)C(=O)NCC(=O)NCC(=O)N1CCC[C@H]1C(=O)N[C@@H](CO)C(=O)N[C@@H](CO)C(=O)NCC(=O)N[C@@H](C)C(=O)N1CCC[C@H]1C(=O)N1CCC[C@H]1C(=O)N1CCC[C@H]1C(=O)N[C@@H](CO)C(N)=O)C(C)C)[C@@H](C)CC)C(C)C)C(=O)O [Example 25] (H-HGEGTFTSDLSRQK([AEEA-AEEA-γGlu-Palmitoyl])EEEAVRLFIEWLVRGGPSSGAPPPS-NH2; N-terminus assumed)	3.0 %/week	0.037 nM	–	–
CCCCCCCCCCCCCCCCCC(=O)NCCOCCOCC(=O)NCCOCCOCC(=O)NCCOCCOCC(=O)NCCCC[C@H](NC(=O)[C@H](CCC(N)=O)NC(=O)[C@H](CCCNC(=N)N)NC(=O)[C@H](CO)NC(=O)[C@H](CC(C)C)NC(=O)[C@H](CC(=O)O)NC(=O)[C@H](CO)NC(=O)[C@@H](NC(=O)[C@H](Cc1ccccc1)NC(=O)[C@@H](NC(=O)CNC(=O)[C@H](CCC(=O)O)NC(=O)CNC(=O)[C@@H](N)Cc1c[nH]cn1)[C@@H](C)O)[C@@H](C)O)C(=O)N[C@@H](CCC(=O)O)C(=O)N[C@@H](CCC(=O)O)C(=O)N[C@@H](CCC(=O)O)C(=O)N[C@@H](C)C(=O)N[C@H](C(=O)N[C@@H](CCCNC(=N)N)C(=O)N[C@@H](CC(C)C)C(=O)N[C@@H](Cc1ccccc1)C(=O)N[C@H](C(=O)N[C@@H](CCC(=O)O)C(=O)N[C@@H](Cc1c[nH]c2ccccc12)C(=O)N[C@@H](CC(C)C)C(=O)N[C@H](C(=O)N[C@@H](CCCNC(=N)N)C(=O)NCC(=O)NCC(=O)N1CCC[C@H]1C(=O)N[C@@H](CO)C(=O)N[C@@H](CO)C(=O)NCC(=O)N[C@@H](C)C(=O)N1CCC[C@H]1C(=O)N1CCC[C@H]1C(=O)N1CCC[C@H]1C(=O)N[C@@H](CO)C(N)=O)C(C)C)[C@@H](C)CC)C(C)C [Example 26, N-ε^14-(2-(2-(2-(2-(2-(2-(2-(2-(2-(Octadecanoylamino)ethoxy)ethoxy)acetylamino)ethoxy)ethoxy)acetyl-amino)ethoxy)ethoxy)acetyl)[Arg^12,Lys^14,Val^27,Arg^28]Exendin-4-(1-39)-amide] (H-HGEGTFTSDLSRQK([AEEA-AEEA-AEEA-Stearoyl])EEEAVRLFIEWLVRGGPSSGAPPPS-NH2; N-terminus assumed)	2.0 %/week	0.088 nM	–	–
CCCCCCCCCCCCCCCCCC(=O)N[C@@H](CCC(=O)NCCOCCOCC(=O)NCCOCCOCC(=O)NCCCC[C@H](NC(=O)[C@H](CCC(N)=O)NC(=O)[C@H](CCCNC(=N)N)NC(=O)[C@H](CO)NC(=O)[C@H](CC(C)C)NC(=O)[C@H](CC(=O)O)NC(=O)[C@H](CO)NC(=O)[C@@H](NC(=O)[C@H](Cc1ccccc1)NC(=O)[C@@H](NC(=O)CNC(=O)[C@H](CCC(=O)O)NC(=O)CNC(=O)[C@@H](N)Cc1c[nH]cn1)[C@@H](C)O)[C@@H](C)O)C(=O)N[C@@H](CCC(=O)O)C(=O)N[C@@H](CCC(=O)O)C(=O)N[C@@H](CCC(=O)O)C(=O)N[C@@H](C)C(=O)N[C@H](C(=O)N[C@@H](CCCNC(=N)N)C(=O)N[C@@H](CC(C)C)C(=O)N[C@@H](Cc1ccccc1)C(=O)N[C@H](C(=O)N[C@@H](CCC(=O)O)C(=O)N[C@@H](Cc1c[nH]c2ccccc12)C(=O)N[C@@H](CC(C)C)C(=O)N[C@H](C(=O)N[C@@H](CCCNC(=N)N)C(=O)NCC(=O)NCC(=O)N1CCC[C@H]1C(=O)N[C@@H](CO)C(=O)N[C@@H](CO)C(=O)NCC(=O)N[C@@H](C)C(=O)N1CCC[C@H]1C(=O)N1CCC[C@H]1C(=O)N1CCC[C@H]1C(=O)N[C@@H](CO)C(N)=O)C(C)C)[C@@H](C)CC)C(C)C)C(=O)O [Example 29] (H-HGEGTFTSDLSRQK([AEEA-AEEA-γGlu-Stearoyl])EEEAVRLFIEWLVRGGPSSGAPPPS-NH2; N-terminus assumed)	2.0 %/week	0.059 nM	–	–
CCCCCCCCCCCCCCCC(=O)N[C@@H](CCC(=O)NCCOCCOCC(=O)NCCOCCOCC(=O)NCCCC[C@H](NC(=O)[C@@H](NC(=O)[C@H](C)NC(=O)[C@H](CCC(=O)O)NC(=O)[C@H](CCC(=O)O)NC(=O)[C@H](CCC(=O)O)NC(=O)[C@H](CC(C)C)NC(=O)[C@H](CCC(N)=O)NC(=O)[C@H](CCC(N)=O)NC(=O)[C@H](CO)NC(=O)[C@H](CC(C)C)NC(=O)[C@H](CC(=O)O)NC(=O)[C@H](CO)NC(=O)[C@@H](NC(=O)[C@H](Cc1ccccc1)NC(=O)[C@@H](NC(=O)CNC(=O)[C@H](CCC(=O)O)NC(=O)CNC(=O)[C@@H](N)Cc1c[nH]cn1)[C@@H](C)O)[C@@H](C)O)C(C)C)C(=O)N[C@@H](CC(C)C)C(=O)N[C@@H](Cc1ccccc1)C(=O)N[C@H](C(=O)N[C@@H](CCC(=O)O)C(=O)N[C@@H](Cc1c[nH]c2ccccc12)C(=O)N[C@@H](CC(C)C)C(=O)N[C@@H](CCCCN)C(=O)N[C@@H](CCC(N)=O)C(=O)NCC(=O)NCC(=O)N1CCC[C@H]1C(=O)N[C@@H](CO)C(=O)N[C@@H](CO)C(=O)NCC(=O)N[C@@H](C)C(=O)N1CCC[C@H]1C(=O)N1CCC[C@H]1C(=O)N1CCC[C@H]1C(=O)N[C@@H](CO)C(N)=O)[C@@H](C)CC)C(=O)O [Example 48] (H-HGEGTFTSDLSQQLEEEAVK([AEEA-AEEA-γGlu-Palmitoyl])LFIEWLKQGGPSSGAPPPS-NH2; N-terminus assumed)	–	–	0.021 nM	–
Exendin-4 [reference compound]	–	–	–	40-50 % per week
